Patent US20180140572A1, “COMPOSITIONS COMPRISING A CANCER STEMNESS INHIBITOR AND AN IMMUNOTHERAPEUTIC AGENT FOR USE IN TREATING CANCER” (Boston Biomedical, Inc., priority 2015, published 2018)

Experiments:
IL-6 = IL-6 protein production by HeLa cells; type: cell-based; details: different concentrations
FaDu sphere cultures = assay: qPCR cancer stem cell array in FaDu sphere cultures; type: cell-based; set-up: % Change ATM / % Change MERTK / % Change NOTCH2 / % Change LATS1 / % Change ITGA2 / % Change SMO / % Change TGFBR1 / % Change MAML1 / % Change WWC1 / % Change ITGA6 / % Change ITGB1 / % Change AXL / % Change KITLG / % Change JAK2 / % Change YAP1 / % Change BMI1 / % Change NOTCH1 / % Change ATXN1 / % Change ERBB2 / % Change SIRT1 / % Change WEE1 / % Change FGFR2 / % Change DDR1 / % Change GSK3B / % Change ENG / % Change DACH1 / % Change ALCAM / % Change HDAC1 / % Change CD44 / % Change HPRT1 / % Change IKBKB / % Change DNMT1 / % Change ETFA / % Change FOXP1 / % Change FLOT2 / % Change CHEK1 / % Change MUC1 / % Change CD24 / % Change NFKB1 / % Change NANOG / % Change ACTB / % Change EPCAM / % Change STAT3 / % Change TWIST2 / % Change PLAUR / % Change EGF / % Change ALDH1A1 / % Change RPLP0 / % Change TAZ / % Change JAG1 / % Change KLF17 / % Change ID1 / % Change ITGA4 / % Change IL8 / % Change MYC / % Change CD34 / % Change LIN28A / % Change POU5F1 / % Change PECAM1: dose or concentration left out as unconfirmed; details: 6 hours, normalized to GAPDH
Procedure: The changes in gene expression following treatment with BBI608 were analyzed. FaDu sphere cultures were treated for 6 hours with DMSO (control) or BBI608 at […]. Total RNA was isolated, reversed transcribed and the generated cDNA was analyzed using a qPCR cancer stem cell array. Data was normalized to the expression of the house keeping gene, GAPDH.

With `CC(=O)c1cc2c(o1)C(=O)c1ccccc1C2=O` [BBI608, 2-acetylnaphtho[2,3-b]furan-4,9-dione] the IL-6 protein production (IL-6) was “downregulated”, the “% Change ACTB” value (FaDu sphere cultures; gene ACTB) was −24.49% and the “% Change ALCAM” value (FaDu sphere cultures; gene ALCAM) was −36.13%. The “% Change ALDH1A1” value (FaDu sphere cultures; gene ALDH1A1) was −18.18%, the “% Change ATM” value (FaDu sphere cultures; gene ATM) was −68.65% and the “% Change ATXN1” value (FaDu sphere cultures; gene ATXN1) was −45.26%. The “% Change AXL” value (FaDu sphere cultures; gene AXL) was −48.50%, the “% Change B2M” value (FaDu sphere cultures; gene B2M) was −27.69% and the “% Change BMI1” value (FaDu sphere cultures; gene BMI1) was −47.40%. The “% Change CD24” value (FaDu sphere cultures; gene CD24) was −26.46%, the “% Change CD34” value (FaDu sphere cultures; gene CD34) was −88.18% and the “% Change CD44” value (FaDu sphere cultures; gene CD44) was −35.44%. For the same molecule, the “% Change CHEK1” value (FaDu sphere cultures; gene CHEK1) was −28.88%, the “% Change DACH1” value (FaDu sphere cultures; gene DACH1) was −36.55% and the “% Change DDR1” value (FaDu sphere cultures; gene DDR1) was −38.59%. For the same molecule, the “% Change DNMT1” value (FaDu sphere cultures; gene DNMT1) was −32.09%, the “% Change EGF” value (FaDu sphere cultures; gene EGF) was −19.07% and the “% Change ENG” value (FaDu sphere cultures; gene ENG) was −37.62%. For the same molecule, the “% Change EPCAM” value (FaDu sphere cultures; gene EPCAM) was −22.87%, the “% Change ERBB2” value (FaDu sphere cultures; gene ERBB2) was −43.81% and the “% Change ETFA” value (FaDu sphere cultures; gene ETFA) was −31.12%. The “% Change FGFR2” value (FaDu sphere cultures; gene FGFR2) was −41.18%, the “% Change FLOT2” value (FaDu sphere cultures; gene FLOT2) was −29.19% and the “% Change FOXP1” value (FaDu sphere cultures; gene FOXP1) was −29.76%. For the same molecule, the “% Change GSK3B” value (FaDu sphere cultures; gene GSK3B) was −38.06%, the “% Change HDAC1” value (FaDu sphere cultures; gene HDAC1) was −36.10% and the “% Change HPRT1” value (FaDu sphere cultures; gene HPRT1) was −33.81%. For the same molecule, the “% Change ID1” value (FaDu sphere cultures; gene ID1) was −12.68%, the “% Change IKBKB” value (FaDu sphere cultures; gene IKBKB) was −32.11% and the “% Change IL8” value (FaDu sphere cultures; gene IL8) was −7.62%. The “% Change ITGA2” value (FaDu sphere cultures; gene ITGA2) was −60.71%, the “% Change ITGA4” value (FaDu sphere cultures; gene ITGA4) was −11.52% and the “% Change ITGA6” value (FaDu sphere cultures; gene ITGA6) was −54.63%. The “% Change ITGB1” value (FaDu sphere cultures; gene ITGB1) was −50.45%, the “% Change JAG1” value (FaDu sphere cultures; gene JAG1) was −14.24% and the “% Change JAK2” value (FaDu sphere cultures; gene JAK2) was −47.94%. For the same molecule, the “% Change KITLG” value (FaDu sphere cultures; gene KITLG) was −47.99%, the “% Change KLF17” value (FaDu sphere cultures; gene KLF17) was −90.18% and the “% Change LATS1” value (FaDu sphere cultures; gene LATS1) was −60.75%. For the same molecule, the “% Change LIN28A” value (FaDu sphere cultures; gene LIN28A) was −87.52%, the “% Change MAML1” value (FaDu sphere cultures; gene MAML1) was −52.82% and the “% Change MERTK” value (FaDu sphere cultures; gene MERTK) was −65.78%. The “% Change MUC1” value (FaDu sphere cultures; gene MUC1) was −27.42%, the “% Change MYC” value (FaDu sphere cultures; gene MYC) was −3.91% and the “% Change NANOG” value (FaDu sphere cultures; gene NANOG) was −93.34%. The “% Change NFKB1” value (FaDu sphere cultures; gene NFKB1) was −25.54%, the “% Change NOTCH1” value (FaDu sphere cultures; gene NOTCH1) was −46.24% and the “% Change NOTCH2” value (FaDu sphere cultures; gene NOTCH2) was −64.37%. The “% Change PECAM1” value (FaDu sphere cultures; gene PECAM1) was −70.26%, the “% Change PLAUR” value (FaDu sphere cultures; gene PLAUR) was −20.64% and the “% Change POU5F1” value (FaDu sphere cultures; gene POU5F1) was −77.31%. The “% Change RPLP0” value (FaDu sphere cultures; gene RPLP0) was −17.48%, the “% Change SIRT1” value (FaDu sphere cultures; gene SIRT1) was −43.35% and the “% Change SMO” value (FaDu sphere cultures; gene SMO) was −55.56%. For the same molecule, the “% Change STAT3” value (FaDu sphere cultures; gene STAT3) was −22.87%, the “% Change TAZ” value (FaDu sphere cultures; gene TAZ) was −15.09% and the “% Change TGFBR1” value (FaDu sphere cultures; gene TGFBR1) was −53.34%. For the same molecule, the “% Change TWIST2” value (FaDu sphere cultures; gene TWIST2) was −21.59%, the “% Change WEE1” value (FaDu sphere cultures; gene WEE1) was −42.86% and the “% Change WWC1” value (FaDu sphere cultures; gene WWC1) was −51.64%. For the same molecule, the “% Change YAP1” value (FaDu sphere cultures; gene YAP1) was −47.45%.
